{
  "source": "paper PMC11051198",
  "about": "“Synthesis and Late-Stage Modification of (−)-Doliculide Derivatives Using Matteson’s Homologation Approach” (Marine Drugs, 2024)",
  "key": {"[1]": {"system": "HCT-116", "assay": "MTT cytotoxicity assay, HCT-116", "assay_type": "cell-based", "settings": "HCT-116 human colon carcinoma, 5 d incubation, 37 °C, 5% CO2, DMEM + 10% FBS, mean ± SD of two independent measurements", "experimental": "(§1) The cell cultures were cultivated at 37 °C under an atmosphere containing 5% CO2. Before usage, Dulbecco’s Modified Eagle Medium (DMEM) from Gibco (Thermo Fisher Scientific) was supplemented with 10% fetal bovine serum (FBS) from Gibco. Cells were used between passage 5 and 30 and were split separately for at least two passages to obtain biological repeats. Cells were washed with PBS and 0.5 mL trypsin was added before treatment. Cells were then incubated for 5 min before adding 10 mL medium containing 10% FBS. Per well, 120 µL cell suspension 5 × 10^4 cells/mL (CHO-K1, HCT-116. U-2 OS, KB3.1) or 1 × 10^5 cells/mL (HepG2) cells were seeded in transparent 96-well cell bind plate and incubated for 2 h at 37 °C and an atmosphere of 5% CO2. Each compound was tested in a serial dilution so that the starting concentration is 111 µg/mL, which is diluted by 1:3 as well as the internal solvent control prepared in DMEM with 10% FBS. After 5 d incubation at 37 °C and an atmosphere of 5% CO2, 20 μL of 5 mg/mL MTT (thiazolyl blue tetrazolium bromide) in PBS was added per well and cells were further incubated until coloration of the cells. The medium was then discarded and 100 μL 2-propanol/10 N HCl (250:1) added to the cells. The plates were analyzed by measuring the absorbance at 570 nm and 630 nm as reference using a microplate reader Infinite® 200 Pro from Tecan (Männedorf, Switzerland). Absorption is then converted to cell viability expressed as percentage relative to the respective solvent control. The calculated percentage of growth inhibition were determined by sigmoidal curve fitting using GraphPad (Boston, MA, USA) Prism software (version 10.0.2). Two independent measurements were generated for mean and standard deviation."}, "[2]": {"system": "CHO-K1", "assay": "MTT cytotoxicity assay, CHO-K1", "assay_type": "cell-based", "settings": "CHO-K1 mutagenized Chinese hamster ovary, 5 d incubation, 37 °C, 5% CO2, DMEM + 10% FBS, mean ± SD of two independent measurements", "experimental": "as §1"}, "[3]": {"system": "U-2 OS", "assay": "MTT cytotoxicity assay, U-2 OS", "assay_type": "cell-based", "settings": "U-2 OS human bone osteosarcoma, 5 d incubation, 37 °C, 5% CO2, DMEM + 10% FBS, mean ± SD of two independent measurements", "experimental": "as §1"}, "[4]": {"system": "KB3.1", "assay": "MTT cytotoxicity assay, KB3.1", "assay_type": "cell-based", "settings": "KB3.1 human epidermoid carcinoma cell line, 5 d incubation, 37 °C, 5% CO2, DMEM + 10% FBS, mean ± SD of two independent measurements", "experimental": "as §1"}, "[5]": {"system": "HepG2", "assay": "MTT cytotoxicity assay, HepG2", "assay_type": "cell-based", "settings": "HepG2 human hepatocellular carcinoma, 5 d incubation, 37 °C, 5% CO2, DMEM + 10% FBS, mean ± SD of two independent measurements", "experimental": "as §1"}, "[6]": {"system": "HeLa-S3 cells", "settings": "ref [1]; cited from earlier work", "experimental": "Isolation of (−)-doliculide (Figure 1) from the Japanese sea hare, Dolabella auricularia, was first reported almost 30 years ago by Yamada et al., along with its potent cytotoxicity against HeLa-S3 cells (IC50 = 1 ng/mL). […] Due to their biological activities as anticancer agents, naturally derived cyclopeptides are interesting candidates for drug development, and so ..."}, "[7]": {"settings": "≤ values: individual results varied widely, given as a range"}},
  "data": [
    {"compound": "CC(C)[C@@H]1C[C@H](O)[C@H](C)C[C@H](C)C[C@H](C)C(=O)NCC(=O)N(C)[C@H](Cc2ccc(O)c(I)c2)C(=O)O1", "note": "[A, (−)-Doliculide]", "values": [
      {"measurement": "IC50", "setting": "[1]; [7]", "result": "0.0088 ± 0.0005", "unit": "µM"},
      {"measurement": "IC50", "setting": "[2]", "result": "0.111 ± 0.0045", "unit": "µM"},
      {"measurement": "IC50", "setting": "[3]; [7]", "result": "0.0252 ± 0.0018", "unit": "µM"},
      {"measurement": "IC50", "setting": "[4]; [7]", "result": "0.038 ± 0.0099", "unit": "µM"},
      {"measurement": "IC50", "setting": "[5]", "result": "0.0164 ± 0.0042", "unit": "µM"},
      {"measurement": "cytotoxicity against HeLa-S3 cells, IC50", "setting": "[6]", "result": 1, "unit": "ng/mL"}
    ]},
    {"compound": "CCOC(=O)CCSCCC[C@@H]1C[C@H](O)[C@H](C)C[C@H](C)C[C@H](C)C(=O)NCC(=O)N(C)[C@H](Cc2ccc(O)c(I)c2)C(=O)O1", "note": "[Compound 11d, Ethyl 3-({3-[(3R,9S,11S,13R,14S,16R)-14-hydroxy-3-(4-hydroxy-3-iodobenzyl)-4,9,11,13-tetramethyl-2,5,8-trioxo-1-oxa-4,7-diazacyclohexadecan-16-yl]propyl}-thio)propanoate]", "values": [
      {"measurement": "IC50", "setting": "[1]; [7]", "result": "0.06 ± 0.013", "unit": "µM"},
      {"measurement": "IC50", "setting": "[2]", "result": "9.84 ± 3.87", "unit": "µM"},
      {"measurement": "IC50", "setting": "[3]", "result": "4.9 ± 3.87", "unit": "µM"},
      {"measurement": "IC50", "setting": "[4]", "result": "3.93 ± 1.14", "unit": "µM"},
      {"measurement": "IC50", "setting": "[5]", "result": "> 49.4", "unit": "µM"}
    ]},
    {"compound": "Benzyl 2-(4-{[(3R,9S,11S,13R,14S,16R)-14-hydroxy-3-(4-hydroxy-3-iodobenzyl)-4,9,11,13-tetramethyl-2,5,8-trioxo-1-oxa-4,7-diazacyclohexadecan-16-yl]methyl}-1H-1,2,3-triazol-1-yl)acetate [Compound 9c]", "values": [
      {"measurement": "IC50", "setting": "[1]", "result": "3.81 ± 1", "unit": "µM"},
      {"measurement": "IC50", "setting": "[2]", "result": "23.8 ± 0.5", "unit": "µM"},
      {"measurement": "IC50", "setting": "[3]", "result": "14.4 ± 1.3", "unit": "µM"},
      {"measurement": "IC50", "setting": "[4]", "result": "21.9 ± 12.6", "unit": "µM"},
      {"measurement": "IC50", "setting": "[5]", "result": "> 46", "unit": "µM"}
    ]}
  ]
}
